In the assay the target is T1, rpHMGR (Ruegeria pomeroyi, UniProt Q5LL64, D154K).
T1 construct: gene mvaA; N-terminal 6xHis-tag (pET28a-rpHMGR(N)), codon-optimised synthetic gene, E. coli BL21(DE3), Ni-NTA purified; homodimer only by model
Briefly: NADPH consumption followed at […] nm (reductive deacylation of HMG-CoA). To be noted: 0.5 mM NADPH, 0.5 mM (R,S)-HMG-CoA, 50 mM Tris-HCl, 50 mM NaCl, 5 mM DTT, pH 7.5, 30 °C. The format is biochemical.

T1 sequence (Q5LL64 entry or part of it D154K): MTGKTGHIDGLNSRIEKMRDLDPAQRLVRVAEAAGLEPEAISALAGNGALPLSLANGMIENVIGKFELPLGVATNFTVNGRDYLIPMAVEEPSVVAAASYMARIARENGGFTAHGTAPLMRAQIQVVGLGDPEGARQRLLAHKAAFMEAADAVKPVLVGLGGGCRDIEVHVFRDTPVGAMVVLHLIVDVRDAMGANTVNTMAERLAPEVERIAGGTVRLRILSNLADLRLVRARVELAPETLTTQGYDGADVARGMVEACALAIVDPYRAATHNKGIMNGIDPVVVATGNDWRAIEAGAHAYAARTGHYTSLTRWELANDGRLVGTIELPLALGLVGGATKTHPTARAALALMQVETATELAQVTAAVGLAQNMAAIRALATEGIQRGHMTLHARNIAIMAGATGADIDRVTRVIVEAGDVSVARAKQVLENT

Consider `NC(=O)C1=CN([C@@H]2O[C@H](COP(=O)(O)OP(=O)(O)OC[C@H]3O[C@@H](n4cnc5c(N)ncnc54)[C@H](OP(=O)(O)O)[C@@H]3O)[C@@H](O)[C@H]2O)C=CC1` [NADPH], for which the specific activity entry is “D154K mutant exhibited a significantly improved ability to utilize NADPH”.

The values above are taken from paper PMC12292504, “Improving Cofactor Promiscuity of HMG-CoA Reductase from Ruegeria pomeroyi Through Rational Design” (Biomolecules, 2025).
